Assays:
Format in all cases: physicochemical
[1] = Chemical stability in sodium acetate buffer assessed as half life at pH 4.0 at 37 degC
[2] = Chemical stability in sodium acetate buffer assessed as half life at pH 4.5 at 37 degC
[3] = Chemical stability in sodium acetate buffer assessed as half life at pH 5.0 at 37 degC
[4] = Chemical stability in sodium acetate buffer assessed as half life at pH 5.4 at 37 degC
[5] = Chemical stability in sodium acetate buffer assessed as half life at pH 5.6 at 37 degC
[6] = Chemical stability in sodium phosphate buffer assessed as half life at pH 6.0 at 37 degC
[7] = Chemical stability in sodium phosphate buffer assessed as half life at pH 6.5 at 37 degC
[8] = Chemical stability in sodium phosphate buffer assessed as half life at pH 7.4 at 37 degC

## CC(C)(C(=O)NC1CCOP(=O)(N(CCCl)CCCl)N1)c1ccccc1N (stereo not drawn)
[1]
  half-life: 3.2 min
[2]
  half-life: 4.9 min
[3]
  half-life: 9.8 min
[4]
  half-life: 17.5 min
[5]
  half-life: 27.2 min
[6]
  half-life: 12.6 min
[7]
  half-life: 19.3 min
[8]
  half-life: 53.7 min

Source: ChEMBL document CHEMBL1154999, “N-(2,2-Dimethyl-2-(2-nitrophenyl)acetyl)-4-aminocyclophosphamide as a potential bioreductively activated prodrug of phosphoramide mustard” (Bioorg Med Chem Lett, 2008)
